Assay results: article PMC8533206 (Antioxidants, 2021)

Tests used:
[1] = biological target: T1, Human recombinant MAO-B (hMAO-B) (Homo sapiens, UniProt P27338); test: MAO-B inhibition assay (Amplex Red fluorescence, benzylamine substrate); assay type: biochemical; conditions: single dose 10 µM
T1 construct: purchased Sigma-Aldrich; host or cells: insect cells
T1 sequence (P27338 1-520): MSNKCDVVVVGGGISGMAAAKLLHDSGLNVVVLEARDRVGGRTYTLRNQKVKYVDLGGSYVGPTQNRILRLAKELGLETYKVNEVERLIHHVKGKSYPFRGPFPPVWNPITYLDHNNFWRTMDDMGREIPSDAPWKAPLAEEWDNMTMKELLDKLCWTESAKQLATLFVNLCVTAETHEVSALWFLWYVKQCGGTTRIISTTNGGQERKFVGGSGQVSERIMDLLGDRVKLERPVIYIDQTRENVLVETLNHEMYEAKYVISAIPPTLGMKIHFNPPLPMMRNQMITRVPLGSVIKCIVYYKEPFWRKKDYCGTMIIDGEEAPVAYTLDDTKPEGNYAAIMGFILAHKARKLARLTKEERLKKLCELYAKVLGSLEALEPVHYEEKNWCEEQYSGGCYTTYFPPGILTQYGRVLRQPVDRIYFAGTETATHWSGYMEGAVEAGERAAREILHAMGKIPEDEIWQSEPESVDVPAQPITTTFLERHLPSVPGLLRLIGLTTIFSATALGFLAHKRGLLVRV
Method: The biological evaluation of the tested compounds over both MAO-A and MAO-B was performed following the previously reported method. The MAO activity was measured in relative fluorescence units (RFU) evoked by peroxidase-catalyzed oxidation of Amplex Red® to resorufin, in which H2O2 generated by MAO reaction was used as the electron donor. Human recombinant MAO-A (hMAO-A) and MAO-B (hMAO-B) enzymes expressed in insect cells were obtained from Sigma-Aldrich. The 2 μL of test compound in DMSO (final concentration: 1–10 μM) was treated with 98 μL of hMAO enzyme solution in 50 mM sodium phosphate buffer (pH 7.4, final protein amounts: ~1.25 μg protein/well for MAO-A and ~2.5 μg protein/well for MAO-B) on 96-well black plate and incubated for 15 min at 37 °C. Then, 100 μL of reaction working solution which is a mixed solution of 400 μM Amplex Red® (Cayman, final concentration: 200 μM), 2 U/mL horseradish peroxidase (Sigma-Aldrich, final concentration: 1 U/mL) and 2 mM substrate (p-tyramine for MAO-A, benzylamine for MAO-B, Sigma-Aldrich, final concentration: 1 mM) in 50 mM sodium phosphate buffer (pH 7.4) were added and incubated for 20 min at 37 °C in the dark. The fluorescent intensity was quantified using a microplate reader (SpectraMax®i3, Molecular Device) with an excitation at 545 nm and an emission at 590 nm. The 50% inhibitory concentrations (IC50) of compounds were determined as the mean ± S.E.M. in triplicate from the dose-response inhibition curves using SigmaPlot® 13.0 (Systat Software Inc., San Jose, CA, USA).

Row | SMILES | melting point | inhibition at 10 µM [1]
1 | COc1cc(NC(=O)Nc2ccc3c(ccn3C(=O)c3cccc(F)c3)c2)cc(OC)c1 [Compound 4g, 1-(3,5-Dimethoxyphenyl)-3-(1-(3-fluorobenzoyl)-1H-indol-5-yl)urea] | 235.6 to 236.6 °C | 55.7 ± 0.2%
2 | O=C(Nc1ccc(N2CCOCC2)cc1)Nc1ccc2c(ccn2C(=O)c2cccc(F)c2)c1 [Compound 4n, 1-(1-(3-Fluorobenzoyl)-1H-indol-5-yl)-3-(4-morpholinophenyl)urea] | – | 32.9 ± 0.3%
3 | O=C(Nc1ccc(F)cc1)Nc1ccc2c(ccn2C(=O)c2cccc(F)c2)c1 [Compound 4i, 1-(1-(3-Fluorobenzoyl)-1H-indol-5-yl)-3-(4-fluorophenyl)urea] | 264.3 to 265.3 °C | 37 ± 0.9%
4 | COc1ccc(NC(=O)Nc2ccc3c(ccn3C(=O)c3cccc(F)c3)c2)cc1 [Compound 4f, 1-(1-(3-Fluorobenzoyl)-1H-indol-5-yl)-3-(4-methoxyphenyl)urea] | – | 32.5 ± 1.4%
5 | CCOC(=O)CNC(=O)Nc1ccc2c(ccn2C(=O)c2cccc(F)c2)c1 [Compound 4b, Ethyl ((1-(3-fluorobenzoyl)-1H-indol-5-yl)carbamoyl)glycinate] | 203.3 to 204.3 °C | 9.9 ± 1.5%
6 | O=C(c1cccc(F)c1)n1ccc2cc(NC(=S)NCCCl)ccc21 [Compound 5b, 1-(2-Chloroethyl)-3-(1-(3-fluorobenzoyl)-1H-indol-5-yl)thiourea] | 221.5 to 222.5 °C | 45.6 ± 1.2%
7 | O=C(Nc1ccc2c(ccn2C(=O)c2cccc(F)c2)c1)NC1CCCCC1 [Compound 4d, 1-Cyclohexyl-3-(1-(3-fluorobenzoyl)-1H-indol-5-yl)urea] | 222.7 to 223.7 °C | 44 ± 0.8%
8 | O=C(NCCCl)Nc1ccc2c(ccn2C(=O)c2cccc(F)c2)c1 [Compound 4c, 1-(2-Chloroethyl)-3-(1-(3-fluorobenzoyl)-1H-indol-5-yl)urea] | 191.3 to 192.3 °C | 26.6 ± 0.6%
9 | CCNC(=O)Nc1ccc2c(ccn2C(=O)c2cccc(F)c2)c1 [Compound 4a, 1-Ethyl-3-(1-(3-fluorobenzoyl)-1H-indol-5-yl)urea] | – | 46.2 ± 1.1%
10 | O=C(Nc1ccc([N+](=O)[O-])cc1)Nc1ccc2c(ccn2C(=O)c2cccc(F)c2)c1 [Compound 4e, 1-(1-(3-Fluorobenzoyl)-1H-indol-5-yl)-3-(4-nitrophenyl)urea] | 249.1 to 250.1 °C | 47.9 ± 1.6%
11 | O=C(NCCc1ccc(F)cc1)Nc1ccc2c(ccn2C(=O)c2cccc(F)c2)c1 [Compound 4l, 1-(1-(3-Fluorobenzoyl)-1H-indol-5-yl)-3-(4-fluorophenethyl)urea] | 231.5 to 232.5 °C | 42 ± 0.6%
12 | O=C(Nc1ccc(Cl)c(Cl)c1)Nc1ccc2c(ccn2C(=O)c2cccc(F)c2)c1 [Compound 4j, 1-(3,4-Dichlorophenyl)-3-(1-(3-fluorobenzoyl)-1H-indol-5-yl)urea] | – | 53.5 ± 0.3%
13 | O=C(Nc1ccc(Cl)c(C(F)(F)F)c1)Nc1ccc2c(ccn2C(=O)c2cccc(F)c2)c1 [Compound 4k, 1-(4-Chloro-3-(trifluoromethyl)phenyl)-3-(1-(3-fluorobenzoyl)-1H-indol-5-yl)urea] | 210.9 to 211.9 °C | 42.1 ± 1.7%
14 | O=C(Nc1ccc(Oc2ccccc2)cc1)Nc1ccc2c(ccn2C(=O)c2cccc(F)c2)c1 [Compound 4m, 1-(1-(3-Fluorobenzoyl)-1H-indol-5-yl)-3-(4-phenoxyphenyl)urea] | 235.2 to 236.2 °C | 38.1 ± 0.5%
15 | O=C(Nc1cc(Cl)cc(Cl)c1)Nc1ccc2c(ccn2C(=O)c2cccc(F)c2)c1 [Compound 4h, 1-(3,5-Dichlorophenyl)-3-(1-(3-fluorobenzoyl)-1H-indol-5-yl)urea] | – | 38.6 ± 1.6%

Other lines, results leading:

Row | melting point | inhibition at 10 µM [1] | SMILES
16 | 136.5 to 137.5 °C | 33.8 ± 2.3% | CCOC(=O)Nc1ccc2c(ccn2C(=O)c2cccc(F)c2)c1 [Compound 6b, Ethyl (1-(3-fluorobenzoyl)-1H-indol-5-yl)carbamate]
17 | 152.6 to 153.6 °C | 34.1 ± 0.7% | O=C(c1cccc(F)c1)n1ccc2cc(NC(=S)NCc3ccco3)ccc21 [Compound 5f, 1-(1-(3-Fluorobenzoyl)-1H-indol-5-yl)-3-(furan-2-ylmethyl)thiourea]
18 | 192.7 to 193.7 °C | 43.9 ± 1.1% | O=C(c1cccc(F)c1)n1ccc2cc(NC(=S)Nc3ccc(N4CCOCC4)cc3)ccc21 [Compound 5c, 1-(1-(3-Fluorobenzoyl)-1H-indol-5-yl)-3-(4-morpholinophenyl)thiourea]
19 | 237.6 to 238.6 °C | 53 ± 0.3% | O=C(Nc1ccc2c(ccn2C(=O)c2cccc(F)c2)c1)c1ccc(Cl)c(Cl)c1 [Compound 6d, 3,4-Dichloro-N-(1-(3-fluorobenzoyl)-1H-indol-5-yl)benzamide]
20 | 278.1 to 279.1 °C | 26.8 ± 1.3% | O=C(Nc1ccc2c(ccn2C(=O)c2cccc(F)c2)c1)c1ccnc([N+](=O)[O-])c1 [Compound 6a, N-(1-(3-Fluorobenzoyl)-1H-indol-5-yl)-2-nitroisonicotinamide]
21 | – | 30.6 ± 0.9% | O=C(c1cccc(F)c1)n1ccc2cc(NC(=S)Nc3ccc([N+](=O)[O-])cc3)ccc21 [Compound 5g, 1-(1-(3-Fluorobenzoyl)-1H-indol-5-yl)-3-(4-nitrophenyl)thiourea]
22 | 171.1 to 172.1 °C | 32.5 ± 0.5% | COc1cc(NC(=S)Nc2ccc3c(ccn3C(=O)c3cccc(F)c3)c2)cc(OC)c1 [Compound 5h, 1-(3,5-Dimethoxyphenyl)-3-(1-(3-fluorobenzoyl)-1H-indol-5-yl)thiourea]
23 | – | 35.5 ± 1.5% | CCOC(=O)C(=O)Nc1ccc2c(ccn2C(=O)c2cccc(F)c2)c1 [Compound 6c, Ethyl 2-((1-(3-fluorobenzoyl)-1H-indol-5-yl)amino)-2-oxoacetate]
24 | 103.4 to 104.4 °C | 49.8 ± 0.3% | COC(=O)c1ccc2c(ccn2C(=O)c2cccc(F)c2)c1 [Compound 7a, Methyl 1-(3-fluorobenzoyl)-1H-indole-5-carboxylate]
25 | – | 46.8 ± 0.2% | O=C(c1cccc(F)c1)n1ccc2cc(NC(=S)NCCN3CCOCC3)ccc21 [Compound 5d, 1-(1-(3-Fluorobenzoyl)-1H-indol-5-yl)-3-(2-morpholinoethyl)thiourea]
26 | 193.4 to 194.4 °C | 59.8 ± 0.4% | O=C(c1cccc(F)c1)n1ccc2cc(NC(=S)Nc3ccc(Cl)c(Cl)c3)ccc21 [Compound 5i, 1-(3,4-Dichlorophenyl)-3-(1-(3-fluorobenzoyl)-1H-indol-5-yl)thiourea]
27 | 144.9 to 145.9 °C | 51.1 ± 0.4% | O=C(c1cccc(F)c1)n1ccc2cc(NC(=S)Nc3cccnc3)ccc21 [Compound 5j, 1-(1-(3-Fluorobenzoyl)-1H-indol-5-yl)-3-(pyridin-3-yl)thiourea]
28 | 187.1 to 188.1 °C | 44.7 ± 0.5% | O=C(c1cccc(F)c1)n1ccc2cc(NC(=S)NCCN3CCCCC3)ccc21 [Compound 5e, 1-(1-(3-Fluorobenzoyl)-1H-indol-5-yl)-3-(2-(piperidin-1-yl)ethyl)thiourea]
29 | – | 34.2 ± 0.2% | O=C(Nc1ccc(F)c(Cl)c1)c1ccc2[nH]ccc2c1 [Compound 8c, N-(3-chloro-4-fluorophenyl)-1H-indole-5-carboxamide]
